According to patent US20260297106A1, “SPIROCYCLIC SUBSTITUTED OXOISOINDOLINYL PIPERIDINE-2,6-DIONE COMPOUND” (Bristol-Myers Squibb Company, priority 2023, published 2026):
Like-named read-outs stand apart in the source and are kept apart here.

How the values were obtained:
Format in all cases: cell-based
IKZF3 Aiolos = IKZF3 Aiolos (Homo sapiens, UniProt Q96SW2+Q9UKT9); experiment: Jurkat Cellular Degradation Assay (IKZF3 Aiolos); parameters: endogenous in cells; conditions: Jurkat cells, 72 h; for Dmax: human, 100% = no detectable protein remaining, read-out: IKZF3 Aiolos max % deg. observed
IKZF3 Aiolos, sequence (Q9UKT9 whole entry): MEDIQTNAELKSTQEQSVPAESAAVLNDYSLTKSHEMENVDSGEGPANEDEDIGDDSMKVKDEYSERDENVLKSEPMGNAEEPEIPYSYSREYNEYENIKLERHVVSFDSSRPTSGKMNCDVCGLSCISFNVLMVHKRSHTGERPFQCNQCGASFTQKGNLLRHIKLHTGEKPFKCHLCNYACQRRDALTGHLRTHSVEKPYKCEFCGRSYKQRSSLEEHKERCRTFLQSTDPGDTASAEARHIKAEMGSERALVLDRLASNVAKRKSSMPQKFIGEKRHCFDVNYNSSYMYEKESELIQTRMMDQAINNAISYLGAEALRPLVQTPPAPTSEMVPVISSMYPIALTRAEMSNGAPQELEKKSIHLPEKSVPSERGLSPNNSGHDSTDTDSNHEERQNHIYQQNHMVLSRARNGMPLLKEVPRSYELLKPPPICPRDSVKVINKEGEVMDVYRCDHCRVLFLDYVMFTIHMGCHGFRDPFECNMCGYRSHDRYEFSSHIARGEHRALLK
IKZF3 Aiolos, sequence (Q96SW2 whole entry): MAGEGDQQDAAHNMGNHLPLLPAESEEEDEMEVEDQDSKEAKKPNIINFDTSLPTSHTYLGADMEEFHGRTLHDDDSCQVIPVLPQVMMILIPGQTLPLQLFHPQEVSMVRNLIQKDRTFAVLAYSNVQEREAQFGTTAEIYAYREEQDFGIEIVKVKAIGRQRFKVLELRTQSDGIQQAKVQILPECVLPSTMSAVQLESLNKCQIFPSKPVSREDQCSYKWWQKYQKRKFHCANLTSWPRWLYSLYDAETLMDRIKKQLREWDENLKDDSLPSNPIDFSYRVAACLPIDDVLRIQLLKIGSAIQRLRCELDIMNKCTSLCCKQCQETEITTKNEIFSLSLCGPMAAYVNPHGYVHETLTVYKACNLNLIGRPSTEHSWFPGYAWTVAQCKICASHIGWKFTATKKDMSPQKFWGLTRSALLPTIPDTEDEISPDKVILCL
IKZF3 Aiolos, sequence (Q16531 whole entry partner): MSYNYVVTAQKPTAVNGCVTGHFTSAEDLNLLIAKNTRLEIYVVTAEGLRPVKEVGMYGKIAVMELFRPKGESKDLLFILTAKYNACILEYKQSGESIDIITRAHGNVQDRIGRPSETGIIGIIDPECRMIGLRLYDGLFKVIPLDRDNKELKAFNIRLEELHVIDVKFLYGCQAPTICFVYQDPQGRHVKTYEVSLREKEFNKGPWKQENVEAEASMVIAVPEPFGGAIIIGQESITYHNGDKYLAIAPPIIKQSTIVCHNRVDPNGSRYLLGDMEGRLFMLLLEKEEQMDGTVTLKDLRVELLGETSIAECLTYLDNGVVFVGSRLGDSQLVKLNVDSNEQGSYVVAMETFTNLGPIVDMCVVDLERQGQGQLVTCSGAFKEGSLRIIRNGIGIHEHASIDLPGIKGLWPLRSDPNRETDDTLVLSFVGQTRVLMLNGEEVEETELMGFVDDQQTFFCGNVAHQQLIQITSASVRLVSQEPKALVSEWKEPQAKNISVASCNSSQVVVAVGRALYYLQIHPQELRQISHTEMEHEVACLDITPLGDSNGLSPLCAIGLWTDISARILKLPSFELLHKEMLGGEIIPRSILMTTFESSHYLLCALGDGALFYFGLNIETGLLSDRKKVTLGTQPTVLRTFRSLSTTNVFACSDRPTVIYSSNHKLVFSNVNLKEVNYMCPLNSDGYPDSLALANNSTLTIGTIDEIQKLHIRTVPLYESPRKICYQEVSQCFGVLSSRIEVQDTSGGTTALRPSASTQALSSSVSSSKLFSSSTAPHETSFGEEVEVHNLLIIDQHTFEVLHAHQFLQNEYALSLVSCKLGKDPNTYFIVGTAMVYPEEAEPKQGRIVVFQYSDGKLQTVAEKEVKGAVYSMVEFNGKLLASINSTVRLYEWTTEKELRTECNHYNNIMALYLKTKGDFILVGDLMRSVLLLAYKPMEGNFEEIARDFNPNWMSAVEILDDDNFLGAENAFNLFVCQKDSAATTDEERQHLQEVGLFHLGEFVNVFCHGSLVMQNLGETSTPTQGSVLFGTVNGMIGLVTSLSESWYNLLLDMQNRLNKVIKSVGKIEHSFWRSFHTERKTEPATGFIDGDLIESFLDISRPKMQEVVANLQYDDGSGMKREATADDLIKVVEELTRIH
Protocol: (§1) Jurkat cells were plated at 80,000 cells/well in 40 μL RPMI+10% FBS in a 384-well cell culture plate prior to using acoustic dispensing technology for adding a compound of interest. Cell cultures were incubated for 72 h at 37° C. and 5% CO2. In order to facilitate analysis, cell cultures were spun down at 200 rpm for 5 min and the supernatant was discarded. After shaking the plate to dislodge the cell pellet, cells were resuspended in 50 μL of Fixation Buffer (eBioscience FoxP3 buffer set 00-5523-00) for 60 min at room temperature. After centrifuging and discarding the supernatant, cells were permeabilized with 50 μL of Permeabilization buffer (eBioscience FoxP3 buffer set 00-5523-00) for 10 min at room temperature. Following permeabilization, cells were spun down and the supernatant was replaced with 20 μL fluorescently labelled antibodies against Helios, Ikaros and Aiolos or corresponding Isotype controls in 1× Permeabilization buffer (Ikaros-Alexa488 [Biolegend, Cat #368408, 1:50], Helios-PE [CST, Cat #29360, 1:50], Aiolos-Alexa647 [Biolegend, Cat #371106 Biolegend, 1:25]) and staining reactions were incubated for 1 h at room temperature while protected from light. Subsequently, 30 μL of 1× Permeabilization buffer was added prior to centrifuging the cells and discarding the supernatant. Stained cells were resuspended in 25 μL of flow cytometry staining buffer [PBS+0.2% bovine serum albumin (BSA)] and analyzed using an Intellicyt Ique Plus flow cytometer.
(§2) Table A-1 lists the maximum observed degradation of the IKZF1 protein, IKZF2 protein, and IKZF3 protein as measured in the Jurkat Cellular Degradation assay. The results in Table A-I were rounded to two digits. In the Jurkat Cellular Degradation assay, a value of 100% indicated no detectable protein remaining or complete degradation of the protein; and a value of 0% indicated no detectable degradation of the protein by the test compound.

IKZF2 Helios = IKZF2 Helios (Homo sapiens, UniProt Q96SW2+Q9UKS7); experiment: Jurkat Cellular Degradation Assay (IKZF2 Helios); parameters: endogenous in cells; conditions: Jurkat cells, 72 h; for DC50: concentration reducing protein level by 50% vs DMSO; for Dmax: human, 100% = no detectable protein remaining, read-out: IKZF2 Helios max % deg. observed
IKZF2 Helios, sequence (Q9UKS7 whole entry): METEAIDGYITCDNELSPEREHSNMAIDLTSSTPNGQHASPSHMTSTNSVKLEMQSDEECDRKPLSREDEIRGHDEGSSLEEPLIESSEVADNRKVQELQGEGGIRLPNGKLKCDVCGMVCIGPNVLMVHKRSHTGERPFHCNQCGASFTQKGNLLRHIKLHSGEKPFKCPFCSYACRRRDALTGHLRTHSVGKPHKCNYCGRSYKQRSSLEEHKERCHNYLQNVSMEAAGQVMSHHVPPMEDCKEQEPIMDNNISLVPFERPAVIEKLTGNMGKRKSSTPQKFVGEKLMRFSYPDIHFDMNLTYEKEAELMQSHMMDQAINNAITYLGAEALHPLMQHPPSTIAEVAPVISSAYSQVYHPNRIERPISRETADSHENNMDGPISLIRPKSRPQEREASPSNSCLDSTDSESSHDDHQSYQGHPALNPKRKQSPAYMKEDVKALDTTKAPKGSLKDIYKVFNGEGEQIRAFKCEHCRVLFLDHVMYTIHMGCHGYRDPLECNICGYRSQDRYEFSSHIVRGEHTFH
IKZF2 Helios, sequence (Q96SW2 whole entry): as the sequence (Q96SW2 whole entry) above
IKZF2 Helios, sequence (Q16531 whole entry partner): as the sequence (Q16531 whole entry partner) above
Protocol: as §1, §2

IKZF1 Ikaros = IKZF1 Ikaros (Homo sapiens, UniProt Q13422+Q96SW2); experiment: Human CD8+ T Cell Reprogramming Assay (IKZF1 Ikaros); parameters: Cryopreserved healthy donor human peripheral blood mononuclear cells; endogenous in cells; host or cells: primary human PBMC, CD8+ T cells read by flow cytometry
IKZF1 Ikaros, sequence (Q13422 whole entry): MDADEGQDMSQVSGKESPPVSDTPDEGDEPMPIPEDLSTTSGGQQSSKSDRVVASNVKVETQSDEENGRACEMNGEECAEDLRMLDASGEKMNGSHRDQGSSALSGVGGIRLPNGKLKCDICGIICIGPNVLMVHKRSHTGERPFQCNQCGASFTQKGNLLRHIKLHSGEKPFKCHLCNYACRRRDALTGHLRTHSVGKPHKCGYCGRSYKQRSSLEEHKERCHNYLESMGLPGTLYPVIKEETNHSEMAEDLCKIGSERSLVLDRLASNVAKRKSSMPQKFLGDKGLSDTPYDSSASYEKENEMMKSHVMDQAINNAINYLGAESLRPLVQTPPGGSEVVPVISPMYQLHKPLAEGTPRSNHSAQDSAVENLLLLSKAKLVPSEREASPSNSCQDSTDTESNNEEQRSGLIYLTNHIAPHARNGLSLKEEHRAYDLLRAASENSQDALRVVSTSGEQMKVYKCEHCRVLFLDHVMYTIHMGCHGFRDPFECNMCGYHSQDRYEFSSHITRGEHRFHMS
IKZF1 Ikaros, sequence (Q96SW2 whole entry): as the sequence (Q96SW2 whole entry) above
IKZF1 Ikaros, sequence (Q16531 whole entry partner): as the sequence (Q16531 whole entry partner) above
Protocol: Cryopreserved healthy donor human peripheral blood mononuclear cells (PBMC) from healthy donors were thawed and seeded at 500,000 cells/well of 96-well round bottom plates in RPMI 1640 media (Gibco) supplemented with 10% FBS, Pen/Strep (Gibco), MEM-NEAA (Gibco), and sodium pyruvate (Gibco). Cells were treated with titrated doses of compound for 24 hours at 37° C., 5% CO2 before analyzing by flow cytometry.
For flow cytometry staining, cells were washed twice with flow cytometry staining buffer (Thermo Fisher) and incubated in Human Tru-stain Fc block (Biolegend) for 10 minutes before adding eFluor780 viability dye (Thermo Fisher) and surface marker antibody cocktail containing LD-eFluor780, CD3-BUV-395, CD4-BUV805, CD8-FITC, and CD25-BV605 for 30 minutes at 4° C. Cells were then fixed and permeabilized by incubation with permeabilization buffer (eBioscience FoxP3 buffer set 00-5523-00) for 30 minutes at 4° C. as per the kit manufacturer's instructions. Cells were washed twice with the Perm/Wash buffer supplied in the kit as per the manufacturer's instructions and incubated overnight at 4° C. with an intracellular antibody cocktail comprised of antibodies specific for the transcription factors (i.e., Foxp3-BV421, HELIOS-PE-Cy7, EOS-PE, IKAROS-PECF594, AIOLOS-AF647). Cells were washed twice with Perm/Wash buffer and resuspended in flow cytometry staining buffer (Thermo Fisher) prior to acquisition. Sample acquisition and analysis was performed using a BD LSRFortessa (BD Biosciences) flow cytometer. Single-stain controls for each fluorochrome were prepared using UltraComp eBead Compensation Beads (Thermo Fisher). Data were analyzed using FlowJo version 10 and GraphPad Prism Software.
as §2, with “D-1” for “A-1”, “protein” for “protein, IKZF2 protein,”, “Human CD8^+ T Cell Reprogramming” for “Jurkat Cellular Degradation”, “D-1” for “A-I”

[1] = human PBMC, CD8+ T cells, 24 hours, read-out: Maximum Observed Degradation IKZF1 Ikaros
[2] = human, 24 h, Table D-1, read-out: decreased the level of IKZF1 (Ikaros)

Dmax (IKZF3 Aiolos)	DC50 (IKZF2 Helios)	Dmax (IKZF1 Ikaros; [1])	Dmax (IKZF1 Ikaros; [2])	Dmax (IKZF2 Helios)	DC50 (IKZF3 Aiolos; concentration reducing protein level by 50% vs DMSO)	DC50 (IKZF1 Ikaros; human PBMC, CD8+ T cells, 24 hours, concentration reducing protein level by 50% vs DMSO)	Dmax (IKZF1 Ikaros; human, 24 h, Table E comparison, from Table D-1, read-out: IKZF1 Ikaros max % deg. observed)	Structure (SMILES)
14%	2.9 nM	20%	≤ 20%	–	–	–	–	O=C1CCC(N2Cc3c(ccc(-c4cc(CN5CC(c6ccccc6)C5)ccn4)c3F)C2=O)C(=O)N1 (centres unmarked) [Comparative Compound A, 3-(4-fluoro-1-oxo-5-(4-((3-phenylazetidin-1-yl)methyl)pyridin-2-yl)isoindolin-2-yl) piperidine-2,6-dione]
28%	8 nM	11%	≤ 20%	90%	–	–	–	Nc1nc(-c2ccc3c(c2)CN(C2CCC(=O)NC2=O)C3=O)ccc1CN1CC2(CCC2)C1 (centres unmarked) [Comparative Compound B, 3-(5-(5-((2-azaspiro[3.3]heptan-2-yl)methyl)-6-aminopyridin-2-yl)-1-oxoisoindolin-2-yl) piperidine-2,6-dione]
33%	8.5 nM	64 to 65%	64 to 65%	91%	> 10000 nM	29 to 43 nM	64 to 65%	Nc1nc(-c2ccc3c(c2F)CN(C2CCC(=O)NC2=O)C3=O)ccc1CN1CC2(CCCOC2)C1 (centres unmarked) [Example 1, 3-(5-(5-((6-oxa-2-azaspiro[3.5]nonan-2-yl)methyl)-6-aminopyridin-2-yl)-4-fluoro-1-oxoisoindolin-2-yl) piperidine-2,6-dione]
